The text below walks through data of patent US20260225997A1, “IONIZABLE AMINE LIPIDS” (Intellia Therapeutics, Inc., priority 2018, published 2026).

A short description of data set [1]: pKa measurement of unformulated amine lipid (fluorescence, method of Jayaraman et al.). It counts as physicochemical. The note with it: 100 μM in 0.1 M phosphate buffer pH 4.5-9.0. The procedure:
The pKa of each amine lipid was determined according to the method in Jayaraman, et al. (Angewandte Chemie, 2012) with the following adaptations. […] Lipid was diluted to 100 μM in 0.1 M phosphate buffer (Boston Bioproducts) where the pH ranged from 4.5-9.0. Fluorescence intensity was measured using excitation and emission wavelengths of 321 nm and 448 nm.

For data set [2], the system named is TTR. As to the kind of experiment: Transthyretin (TTR) ELISA analysis of mouse serum after LNP dosing. Type of data set: in vivo. The note with it: for response vs control in vivo at 0.1 mg/kg / response vs control in vivo at 0.03 mg/kg: Mus musculus, iv, read-out: Serum TTR % TSS. In short, it runs like this: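 Female CD-1 mice aged 6-10 weeks were grouped by body weight and given LNPs by lateral tail vein injection (0.2 mL per animal, about 10 mL per kilogram). Mice were bled by cardiac puncture under isoflurane into serum separator tubes. Serum was diluted 10,000-fold for the 0.1 mpk dose, and total TTR was quantified with a Mouse Prealbumin (Transthyretin) ELISA Kit following the kit directions.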
(In general: An ELISA detects its analyte on a solid surface through an enzyme-linked reagent.)

Data set [3] can be described thus: RNA encapsulation efficiency of LNP (Ribogreen fluorescence assay). It counts as physicochemical. In outline: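 LNP samples diluted in 1× TE buffer with 0.2% Triton X-100 (total RNA) or without it (free RNA), stained with RiboGreen for ~10 min at room temperature in the dark, read at ex 488/em 525 nm against RNA standard curves. Encapsulation efficiency = (Total RNA − Free RNA)/Total RNA.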

Where [4] appears, read: Example 56: 0.1 mpk i.v., 7 days post-dose, G282.

Read-outs that look alike come from different tables or passages of the source.

In data set [1], `CCCCCCCCOC(CCCCCCCN(CCO)CCCCCCCC(=O)OC(CC)CCCCCCCC)OCCCCCCCC` (stereo not shown) [Compound 17, undecan-3-yl 8-((8,8-bis(octyloxy)octyl)(2-hydroxyethyl)amino)octanoate] yielded a pKa of 6.21. The “Serum TTR” value in data set [2] (Example 58: 0.1 mpk i.v., 6 days post-dose, G282 1:1) was 479 µg/mL; in data set [2] (Example 62: 0.03 mpk i.v., 7 days post-dose, G282 1:2), 495 µg/mL; in data set [2] (Example 62: 0.1 mpk i.v., 7 days post-dose, G282 1:2), 304 µg/mL. For the same compound, the response vs control in vivo at 0.1 mg/kg in data set [2] (144 h, Example 58: 0.1 mpk i.v., 6 days post-dose, G282 1:1) was 48%; in data set [2] (168 h, Example 62: 0.1 mpk i.v., 7 days post-dose, G282 1:2), 48%. In data set [2] (168 h, Example 62: 0.03 mpk i.v., 7 days post-dose, G282 1:2), the response vs control in vivo at 0.03 mg/kg turned out to be 78%. Moreover, the “Encapsulation (%)” value worked out at 91% in data set [3] (Table 14, Example 58: LNP, G282 (TTR) 1:1 w/w, N:P 6.0) and 94% in data set [3] (Table 22, Example 62: LNP, G282 (TTR), sgRNA:Cas9 mRNA 1:2 w/w, N:P 6.0).
As for `CCCCCCCCCOC(=O)CCCCCCCN(CCO)CCCCCCCC(=O)OC(CCCCCCCC)CCCCCCCC` [Compound 18, heptadecan-9-yl 8-((2-hydroxyethyl)(8-(nonyloxy)-8-oxooctyl)amino)octanoate, reference compound], the pKa in data set [1] stood at 6.6. In addition, the “Serum TTR” value turned out to be 415 µg/mL in data set [2] (setting [4]); 324 µg/mL in data set [2] (Example 59: 0.1 mpk i.v., 7 days post-dose, G282 1:1); 615 µg/mL in data set [2] (Example 61: 0.1 mpk i.v., 7 days post-dose, G282 1:1). Also, the “Serum TTR (% TSS)” value in data set [2] (setting [4]) worked out at 52 % TSS. Moreover, the response vs control in vivo at 0.1 mg/kg worked out at 35% in data set [2] (168 h, Example 59: 0.1 mpk i.v., 7 days post-dose, G282 1:1) and 48% in data set [2] (168 h, Example 61: 0.1 mpk i.v., 7 days post-dose, G282 1:1). Further, the “Encapsulation (%)” value in data set [3] (Table 12, Example 56: LNP, G282 (TTR), ratio 6.0) was determined as 81%; in data set [3] (Table 16, Example 59: LNP, G282 (TTR) 1:1 w/w, N:P 6.0), 98%; in data set [3] (Table 20, Example 61: LNP, G282 (TTR) 1:1 w/w, N:P 6.0), 90%.
Turning to `CCCCCCCCOC(CCCCCCCN(CCO)CCCCCCCC(=O)OC(CC)CCCCCC)OCCCCCCCC` (stereo not shown) [Compound 28, nonan-3-yl 8-((8,8-bis(octyloxy)octyl)(2-hydroxyethyl)amino)octanoate], the pKa in data set [1] was found to be 6.41. Further, the “Serum TTR” value in data set [2] (Example 63: 0.03 mpk i.v., 7 days post-dose, G282 1:1) was 493.60 µg/mL; in data set [2] (Example 63: 0.1 mpk i.v., 7 days post-dose, G282 1:1), 321.26 µg/mL. Moreover, the response vs control in vivo at 0.03 mg/kg in data set [2] (168 h, Example 63: 0.03 mpk i.v., 7 days post-dose, G282 1:1) is 61.2%. Moreover, the response vs control in vivo at 0.1 mg/kg in data set [2] (168 h, Example 63: 0.1 mpk i.v., 7 days post-dose, G282 1:1) is 39.8%. For the same compound, the “Encapsulation (%)” value in data set [3] (Table 24, Example 63: LNP, G282 (TTR) 1:1 w/w, NP 6.0) is recorded as 97%.

Broadly, the pKa is the pH at which an ionisable group is half protonated.
